Two compounds from patent US20230357242A1, “COMPOUND AS AKT KINASE INHIBITOR” (CHIA TAI TIANQING PHARMACEUTICAL GROUP CO., LTD., priority 2020, published 2023) can be followed below.

This data set is described as follows: Pharmacokinetic evaluation in mice. Format: in vivo. Also on record: Cl: unit not given here. Particulars: ICR mice; for AUC(0-inf) / AUC(0-t) / Cmax / Tmax / bioavailability / MRT last / Vd: mouse, plasma; for bioavailability: IG 10 mg/kg vs IV 1 mg/kg, read-out: Absolute bioavailability F %; for MRT last: read-out: MRT(0-t). The procedure: ICR mice, weight 18-22 g, after adaption for 3-5 days, were randomly divided into 4 groups of 9 mice, each group was intragastrically (IG) administered with compound 28 or compound 30 at a dose of 10 mg/kg, or intravenously (IV) administered with compound 28 or compound 30 at a dose of 1 mg/kg.
The animals to be tested (ICR mice) were fasted for 12 h before administration and food was provided 4 h after administration, and water was freely drunk before and after the experiment and during the experiment.
After intragastric administration, about 0.1 mL of blood was taken from eye sockets at 15 min, 30 min, 1 h, 2 h, 3 h, 4 h, 6 h, 8 h, 10 h, and 24 h; after intravenous injection, about 0.1 mL of blood was taken from eye sockets at 5 min, 10 min, 30 min, 1 h, 2 h, 4 h, 6 h, 8 h, 10 h, and 24 h; each mouse was collected at 3-4 time points and 3 mice were collected at each time point, whole blood was collected, placed in centrifuge tubes containing EDTA-K2, and stored at 4° C. within 1 h, and the plasma was separated off by centrifugation at 4° C. and 4000 rpm for 10 min. All the plasma samples were collected and immediately stored at −20° C. for testing. 30 μL of the plasma sample to be tested and a standard curve sample were pipetted and added with 300 μL of acetonitrile solution containing an internal standard (20 ng/mL diazepam), shaken and mixed well for 5 min, and centrifuged at 13,000 rpm for 10 min. 80 μL of supernatant was taken and diluted with 80 μL of ultrapure water. After being mixed well, 2 μL of the resulting sample was taken for liquid chromatography-mass determination, and a chromatogram was recorded.
Oral and intravenous exposure of the compound of the present application was evaluated by in vivo pharmacokinetic experiment in mice.

Read-outs that look alike come from different tables or passages of the source.

A word on the AUC(0-inf): it is total exposure, with the tail of the curve extrapolated. A word on the AUC(0-t): it is exposure summed from dosing to a finite time, without extrapolation to infinity. The term Cmax denotes the peak of the concentration-time curve. As usually defined, the Tmax is the time from dosing to the highest level. As a reminder, the bioavailability is the share of a dose that reaches the circulation, judged against a reference dose that is usually intravenous. By Vd is commonly meant a proportionality between amount in the body and measured concentration, not a real space. `CC(=O)N1CC2(C1)CN(c1cccc(-c3ccc4nc(-c5cccnc5N)n(-c5ccc(C6(N)CCC6)cc5)c4n3)c1F)C2` [Compound 28] had a t1/2z (IG 10 mg/kg) of 5.31 h. Under “IV 1 mg/kg”, the Cl is reported as 3.95, the t1/2z stood at 1.74 h, the AUC(0-inf) came out at 253 ng·h/mL and the AUC(0-t) turned out to be 246 ng·h/mL. For the same compound, for the setting “IV 1 mg/kg”, the distribution volume (Vd) stood at 9.92 L/kg and the MRT last stood at 1.49 h. Besides, under “po, IG 10 mg/kg”, the AUC(0-inf) was 896 ng·h/mL, the area under the curve AUC(0-t) is 871 ng·h/mL, the peak level (Cmax) was 140 ng/mL and the Tmax was determined as 2 h. In addition, the MRT last (po, IG 10 mg/kg) came out at 5.28 h. Also, the bioavailability (po) is 35.4%.

For the compound `Nc1ncccc1-c1nc2ccc(-c3cccc(N4CCC(N5CCCC5=O)CC4)c3F)nc2n1-c1ccc(C2(N)CCC2)cc1` [Compound 30], for the setting “IG 10 mg/kg”, the t1/2z turned out to be 6.58 h. Where the note is “IV 1 mg/kg”, the Cl is on record as 2.08, the t1/2z stood at 1.48 h, the AUC(0-inf) was found to be 482 ng·h/mL and the AUC(0-t) was found to be 476 ng·h/mL. Under “IV 1 mg/kg”, the volume of distribution (Vd) was 4.43 L/kg and the MRT last came to 1.04 h. For the same compound, for the setting “po, IG 10 mg/kg”, the AUC(0-inf) turned out to be 2880 ng·h/mL, the area under the curve AUC(0-t) came to 2770 ng·h/mL, the maximum concentration (Cmax) is 542 ng/mL and the Tmax came to 2 h. The MRT last (po, IG 10 mg/kg) worked out at 5.01 h. In addition, the bioavailability (po) was 58.2%.
